From patent US8314143B2, “Synthetic flavonoids and pharmaceutical compositions and therapeutic methods of treatment of HIV infection and other pathologies” (Florida A&M University, priority 2006, dated 2012)
Several values for one entry are separate records, joined by “and”; a condition that tells them apart may be missing. Equal values may be shown once. Read-outs that look alike come from different tables or passages of the source.

Columns and labels:
Format in all cases: cell-based
[1] = tested on: H-9 cells; assay: Cytoxicity on H-9 cells (drug inhibition, cell count); conditions: same conditions as AZT
Source text: (§1) The purified and identified analogs were subjected to in vitro biological testing. […] These three congeners were further evaluated in H9 and PC3 cells. AZT was employed as a positive control in all of these experiments.

[2] = tested on: MCF-7 cells; assay: Cytoxicity on MCF-7 cells (drug inhibition, cell count); conditions: for inhibition at 1 µg/mL / inhibition at 5 µg/mL / inhibition at 10 µg/mL / inhibition at 50 µg/mL: Homo sapiens, MCF7, MCF-7 cells; for inhibition at 1 µg/mL / inhibition at 5 µg/mL / inhibition at 10 µg/mL / inhibition at 50 µg/mL / % Inhibition: vs 2% DMSO; for Cells (×10^4): single replicate count
Source text: as §1

[3] = tested on: PC-3 cells; assay: Cytoxicity on PC-3 cells (drug inhibition, cell count); conditions: same conditions as AZT
Source text: The purified and identified analogs were subjected to in vitro biological testing.

COc1cc(C=CC(=O)c2cc(C)cc([N+](=O)[O-])c2O)cc(OC)c1OC [CHNM 3M]
inhibitory activity compared to AZT [1]: much superior inhibitory activities | inhibition at 1 µg/mL ([2]; drug 1 μg/ml, mean of replicates, read-out: % Inhibition Mean): 12.6% | inhibition at 1 µg/mL ([2]; drug 1 μg/ml, single replicate, read-out: % Inhibition): 13.1% | inhibition at 5 µg/mL ([2]; drug 5 μg/ml, mean of replicates, read-out: % Inhibition Mean): 51.4% | inhibition at 5 µg/mL ([2]; drug 5 μg/ml, single replicate, read-out: % Inhibition): 49.4% | inhibition at 10 µg/mL ([2]; drug 10 μg/ml, mean of replicates, read-out: % Inhibition Mean): 90.3% | inhibition at 10 µg/mL ([2]; drug 10 μg/ml, single replicate, read-out: % Inhibition): 90.2% | inhibition at 50 µg/mL ([2]; drug 50 μg/ml, mean of replicates, read-out: % Inhibition Mean): 96.6% | inhibition at 50 µg/mL ([2]; drug 50 μg/ml, single replicate, read-out: % Inhibition): 96.6% | response to MCF-7 cells in the different drug concentrations ([2]; MCF-7 cells): good activities | Cells (×10^4) Mean ([2]; MCF-7 cells, drug 1 μg/ml, mean of replicates): 44.50 ×10^4 | Cells (×10^4) ([2]; MCF-7 cells, drug 1 μg/ml): 44.3 ×10^4 (2×) and 45.0 ×10^4 | % Inhibition ([2]; MCF-7 cells, drug 1 μg/ml, single replicate): 11.62% | Cells (×10^4) Mean ([2]; MCF-7 cells, drug 5 μg/ml, mean of replicates): 24.75 ×10^4 | Cells (×10^4) ([2]; MCF-7 cells, drug 5 μg/ml): 25.8 ×10^4 and 24.0 ×10^4 and 24.5 ×10^4 | % Inhibition ([2]; MCF-7 cells, drug 5 μg/ml, single replicate): 52.86% and 51.88% | Cells (×10^4) Mean ([2]; MCF-7 cells, drug 10 μg/ml, mean of replicates): 4.92 ×10^4 | Cells (×10^4) ([2]; MCF-7 cells, drug 10 μg/ml): 5.0 ×10^4 (2×) and 4.8 ×10^4 | % Inhibition ([2]; MCF-7 cells, drug 10 μg/ml, single replicate): 90.67% | Cells (×10^4) Mean ([2]; MCF-7 cells, drug 50 μg/ml, mean of replicates): 1.75 ×10^4 | Cells (×10^4) ([2]; MCF-7 cells, drug 50 μg/ml): 1.8 ×10^4 and 2.0 ×10^4 and 1.5 ×10^4 | % Inhibition ([2]; MCF-7 cells, drug 50 μg/ml, single replicate): 96.07% and 97.05% | inhibitory activity compared to AZT ([2]; MCF-7 cells, same conditions as AZT): much superior inhibitory activities | inhibitory activity compared to AZT [3]: much superior inhibitory activities
